The record followed here is PubChem BioAssay AID328 (DTP/NCI, 2004).

The subject of this test is BDF1 mice, P388 leukemia ip, median survival T/C. Nature of the test: NCI In Vivo Anticancer Drug Screen. Data for tumor model P388 Leukemia (intraperitoneal) in B6D2F1 (BDF1) mice. The conditions noted are these: endpoint: median survival time, higher = longer survival. An outline of the steps: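 T/C = treated-group survival ÷ vehicle-control survival; tumour transplanted into mice before dosing.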

Setting [1] is: dose: 100.0 mg/kg/injection, schedule: Q04DX003 (ip), vehicle: saline with Tween-80.
Where [2] appears, read: dose: 100.0 mg/kg/injection, schedule: Q04DX003 (ip), vehicle: saline.
Setting [3] is: dose: 200.0 mg/kg/injection, schedule: Q04DX003 (ip), vehicle: saline.
Setting [4] is: dose: 100.0 mg/kg/injection, schedule: Q04DX002 (ip), vehicle: saline with Tween-80.
[5] abbreviates: dose: 200.0 mg/kg/injection, schedule: Q04DX002 (ip), vehicle: saline with Tween-80.
Setting [6] is: dose: 50.0 mg/kg/injection, schedule: Q04DX003 (ip), vehicle: saline with Tween-80.
Setting [7] is: dose: 50.0 mg/kg/injection, schedule: Q01DX009 (ip), vehicle: saline with Tween-80.
Setting [8] is: dose: 100.0 mg/kg/injection, schedule: Q01DX009 (ip), vehicle: saline with Tween-80.

“And” between values parts separate entries of the source, which are not always exact repeats. Equal entries are not always repeated. Inconclusive results and toxic doses are left out. Residues, ends and D or L forms follow the SMILES beside them.

Turning to `CC(C#N)(Nc1ccccc1)c1ccco1` (stereo unspecified), the T/C was 100 % of control (dose: 6.25 mg/kg/injection, schedule: Q04DX003 (ip), vehicle: other); 100 % of control (dose: 12.5 mg/kg/injection, schedule: Q04DX003 (ip), vehicle: other); 100 % of control (dose: 25.0 mg/kg/injection, schedule: Q04DX003 (ip), vehicle: other).

Regarding `CCCCCCCC(=O)NC1CC(O[C@H]2C[C@](O)(C(=O)CO)Cc3c(O)c4c(c(O)c32)C(=O)c2c(OC)cccc2C4=O)OC(C)C1O` (stereo partly specified), the T/C runs as follows: (dose: 0.78 mg/kg/injection, schedule: Q01DX009 (ip), vehicle: water) 104 % of control; (dose: 6.25 mg/kg/injection, schedule: Q01DX009 (ip), vehicle: water) 150 % of control; (dose: 12.5 mg/kg/injection, schedule: Q01DX009 (ip), vehicle: water) 156 % of control; (dose: 18.8 mg/kg/injection, schedule: Q04DX003 (ip), vehicle: water) 106 % of control; (dose: 25.0 mg/kg/injection, schedule: Q01DX009 (ip), vehicle: water) 177 % of control; (dose: 37.5 mg/kg/injection, schedule: Q04DX003 (ip), vehicle: water) 109 % of control. Further, the T/C runs as follows: (dose: 75.0 mg/kg/injection, schedule: Q04DX003 (ip), vehicle: water) 104 % of control and 123 % of control; (dose: 150.0 mg/kg/injection, schedule: Q04DX003 (ip), vehicle: water) 119 % of control.

With `Nc1nc(N)c2nc(Sc3ccc(Cl)cc3)c(-c3ccccc3)nc2n1`, the T/C runs as follows: under setting [1], 88 % of control; (dose: 400.0 mg/kg/injection, schedule: Q04DX003 (ip), vehicle: saline with Tween-80) 99 % of control.

As for `CC(C)=CCO`, the T/C is, setting by setting: under setting [2], 100 % of control; under setting [3], 104 % of control; (dose: 400.0 mg/kg/injection, schedule: Q04DX003 (ip), vehicle: saline) 104 % of control.

On to `CC(=O)CC(C)=O.CC(=O)CC(C)=O.CC(C)c1ncc[nH]1.O=N[O-].[Co]`, for which the T/C runs as follows: under setting [4], 105 % of control; under setting [5], 107 % of control.

As to `CC(C)C(Sc1nc(N)nc2nc[nH]c12)C(=O)O` (stereo unspecified), the T/C runs as follows: (dose: 100.0 mg/kg/injection, schedule: Q04DX003 (ip), vehicle: saline sonified) 110 % of control; (dose: 200.0 mg/kg/injection, schedule: Q04DX003 (ip), vehicle: saline sonified) 120 % of control; (dose: 400.0 mg/kg/injection, schedule: Q04DX003 (ip), vehicle: saline sonified) 105 % of control.

With `CC1OC(OCc2cc(O)c3c(c2)C(C2OC(CO)C(O)C(O)C2O)c2cccc(O)c2C3=O)C(O)C(O)C1O` (stereo unspecified), the T/C was 105 % of control (dose: 50.0 mg/kg/injection, schedule: Q04DX003 (ip), vehicle: water); 101 % of control (dose: 100.0 mg/kg/injection, schedule: Q04DX003 (ip), vehicle: water); 90 % of control (dose: 200.0 mg/kg/injection, schedule: Q04DX003 (ip), vehicle: water).

As to `CCC1/C=C/C=C/CC(C)C(O)C(C)(O)C(=O)C(C)C(O)C(C)C(=O)C(C)C(O)C(C)/C=C/C(=O)OC2C(C)C(CC1)OC1(OC(CC(C)O)C(C)CC1=O)C2C` (stereo unspecified) (tested in a mixture with another compound), the T/C is, setting by setting: (dose: 0.15 mg/kg/injection, schedule: Q01DX010 (ip), vehicle: carboxymethylcellulose (CMC)) 110 % of control; (dose: 0.15 mg/kg/injection, schedule: Q01DX010 (ip), vehicle: saline) 109 % of control; (dose: 0.3 mg/kg/injection, schedule: Q01DX010 (ip), vehicle: carboxymethylcellulose (CMC)) 110 % of control; (dose: 0.3 mg/kg/injection, schedule: Q01DX010 (ip), vehicle: saline) 150 % of control and 154 % of control; (dose: 0.6 mg/kg/injection, schedule: Q01DX010 (ip), vehicle: carboxymethylcellulose (CMC)) 120 % of control; (dose: 0.6 mg/kg/injection, schedule: Q01DX010 (ip), vehicle: saline) 154 % of control. Further, the T/C is, setting by setting: (dose: 1.2 mg/kg/injection, schedule: Q01DX010 (ip), vehicle: carboxymethylcellulose (CMC)) 190 % of control; (dose: 1.2 mg/kg/injection, schedule: Q01DX010 (ip), vehicle: saline) 163 % of control; (dose: 2.5 mg/kg/injection, schedule: Q01DX009 (ip), vehicle: saline) 154 % of control; (dose: 2.5 mg/kg/injection, schedule: Q01DX010 (ip), vehicle: saline) 154 % of control; (dose: 5.0 mg/kg/injection, schedule: Q01DX009 (ip), vehicle: saline) 163 % of control; (dose: 37.0 micrograms/kg/injection, schedule: Q01DX010 (ip), vehicle: saline) 120 % of control. Also, under “dose: 150.0 micrograms/kg/injection, schedule: Q01DX010 (ip), vehicle: saline”, the T/C is 150 % of control.

As for `CC(N)C(=O)NC(C)C(=O)NC(C)C(=O)NC(C)C(=O)O` (stereo unspecified) (H-AAAA-OH; configuration not given here), the T/C (dose: 50.0 mg/kg/injection, schedule: Q01DX005 (ip), vehicle: saline) was 93 % of control; the T/C (dose: 100.0 mg/kg/injection, schedule: Q01DX005 (ip), vehicle: saline) is 98 % of control; the T/C (dose: 200.0 mg/kg/injection, schedule: Q01DX005 (ip), vehicle: saline) was 105 % of control.

Turning to `CC(C)N(c1c2c(oc(=O)c1Cl)CCSC2)C(C)C`, the T/C under setting [4] was 99 % of control; the T/C under setting [5] was 101 % of control; the T/C (dose: 400.0 mg/kg/injection, schedule: Q04DX002 (ip), vehicle: saline with Tween-80) is 96 % of control.

With `O=[N+]([O-])c1ccc(Cl)c2c([N+](=O)[O-])cccc12`, the T/C reads like this: under setting [6], 104 % of control; under setting [1], 109 % of control; (dose: 200.0 mg/kg/injection, schedule: Q04DX003 (ip), vehicle: saline with Tween-80) 109 % of control.

`CN(C)[C@@H]1C(=O)C(C(=O)NCN(CCCl)CCCl)=C(O)[C@@]2(O)C(=O)C3=C(O)c4c(O)cccc4[C@@](C)(O)[C@H]3C[C@@H]12`: the T/C (dose: 3.12 mg/kg/injection, schedule: Q01DX009 (ip), vehicle: saline with Tween-80) is 104 % of control; the T/C (dose: 6.25 mg/kg/injection, schedule: Q01DX009 (ip), vehicle: Klucel (hydroxypropylcellulose) (HPC)) was 91 % of control; the T/C (dose: 6.25 mg/kg/injection, schedule: Q01DX009 (ip), vehicle: saline with Tween-80) was 100 % of control; the T/C (dose: 9.0 mg/kg/injection, schedule: Q01DX009 (ip), vehicle: saline) is 159 % of control; the T/C (dose: 12.5 mg/kg/injection, schedule: Q01DX009 (ip), vehicle: Klucel (hydroxypropylcellulose) (HPC)) is 108 % of control; the T/C (dose: 12.5 mg/kg/injection, schedule: Q01DX009 (ip), vehicle: saline with Tween-80) is 100 % of control. Further, the T/C was 172 % of control (dose: 14.0 mg/kg/injection, schedule: Q01DX009 (ip), vehicle: saline); 150 % of control (dose: 20.0 mg/kg/injection, schedule: Q04DX003 (ip), vehicle: saline); 161 % of control and 209 % of control (dose: 22.0 mg/kg/injection, schedule: Q01DX009 (ip), vehicle: saline); 90 % of control and 109 % of control (dose: 25.0 mg/kg/injection, schedule: Q01DX009 (ip), vehicle: saline with Tween-80); 169 % of control (dose: 33.0 mg/kg/injection, schedule: Q01DX009 (ip), vehicle: saline); 163 % of control (dose: 33.0 mg/kg/injection, schedule: Q04DX003 (ip), vehicle: saline with Tween-80). Also, the T/C runs as follows: (dose: 44.0 mg/kg/injection, schedule: Q04DX003 (ip), vehicle: saline) 186 % of control; (dose: 50.0 mg/kg/injection, schedule: Q01DX009 (ip), vehicle: Klucel (hydroxypropylcellulose) (HPC)) 163 % of control; under setting [7], 86 % of control and 109 % of control; (dose: 50.0 mg/kg/injection, schedule: Q01DX009 (ip), vehicle: saline) 203 % of control and 208 % of control; under setting [6], 186 % of control; (dose: 67.0 mg/kg/injection, schedule: Q04DX003 (ip), vehicle: saline) 196 % of control. Besides, the T/C was 211 % of control (dose: 75.0 mg/kg/injection, schedule: Q01DX009 (ip), vehicle: saline); 218 % of control (dose: 75.0 mg/kg/injection, schedule: Q04DX003 (ip), vehicle: saline with Tween-80); 109 % of control under setting [8]; 229 % of control and 220 % of control under setting [2]; 91 % of control under setting [3].

Consider `OC1CCCC12CC2` (stereo unspecified), for which the T/C is, setting by setting: under setting [7], 100 % of control; under setting [8], 102 % of control.
